In publication PMC6680510, “Benzotriazine Di-Oxide Prodrugs for Exploiting Hypoxia and Low Extracellular pH in Tumors” (Molecules, 2019):
Like-named read-outs stand apart in the source and are kept apart here.

What was measured:
[1] = One-electron reduction potentials by pulse radiolysis; format: physicochemical; details: pH 7.0, equilibrium with redox indicator shown in square brackets
Protocol: One-electron reduction potentials (E^0′) were determined from the redox equilibria with methylviologen, MV^2+, (E^0′ = […], [34]), dimethyldiquat, V21^2+, (E^0′ = […], [35]), or triquat, TQ^2+, (E^0′ = −548 ± 7 mV [34]). […] Substituting the 3-alkanoic sidechain with the 3-aminoalkanoic sidechain on the BTO 1,4-dioxide lowers the E^0′, as does the addition of the cyclopentane ring. The combined effect is seen for 10a, where the E^0′ value is −565 mV, which is expected to be too low for significant bioreduction under hypoxia.
Time-resolved optical absorption and kinetic studies were carried out using the University of Auckland’s 4 MeV linear accelerator, which has been previously described. The one-electron reduction potentials of the compounds (A) and couple E^0′(A/A^−), versus normal hydrogen electrode, were determined at pH 7.0 (2.5 mM phosphate) by establishing redox equilibria within 50 μs between three mixtures of one-electron reduced A and the viologen reference compounds, MV^2+, TQ^2+ and V21^2+. The determined equilibrium constants were used to calculate the ΔE values using the Nernst equation, correcting for ionic strength effects, as described in the literature.

FaDu cells = assay: IC50 assay (inhibition of proliferation, 4 h exposure, SRB); format: cell-based
SiHa cells [2] = system: SiHa cells
Protocol: In these experiments, cell pellets were collected by centrifugation and ^3H-mannitol was used as a cell-excluded marker to enable correction for the entrapped extracellular medium.
Log-phase cultures were dissociated with trypsin/EDTA, followed by the addition of the medium with DNAase I (Sigma DN-25) at 100 μg/mL for 5 min at 37 °C to minimize clumping. The cell pellets were collected by centrifugation and resuspended in αMEM with 5% FBS at pH 7.4 or 6.5 to 2 × 10^6 cells/mL. Samples (12 mL) were equilibrated with magnetic stirring at 37 °C under flowing humidified 5% CO2/air or N2 (50–100 mL/min), as previously described [86]. After equilibration for 60 min, the compounds were added in 50 μL of DMSO. The samples (5 mL) were withdrawn 5 and 60 min later, where the cell pellets were then collected by centrifugation and 4 mL of the supernatant was discarded. The pellets were resuspended in the remaining 1 mL, transferred to microcentrifuge tubes containing 7 μL ^3H-mannitol (740 GBq/mmol, American Radiolabeled Chemicals Inc., St. Louis, MO) as an extracellular marker, and then centrifuged (11,000g × 30s). The supernatant was removed and frozen at −80 °C (extracellular samples) and the tubes were centrifuged again, and any remaining medium was carefully removed. Ice-cold MeOH (80 μL) was added to the pellets which were disrupted by pipetting and stored at −80 °C (intracellular samples). When these were thawed for HPLC analysis (Section 4.12), the volume of extracellular water trapped in the pellets was determined by the scintillation counting (PerkinElmer Tri-Carb B2910TR Liquid Scintillation) of 25 μL of each extracellular and intracellular sample in 3 mL of Emulsifier-Safe™ scintillation cocktail (PerkinElmer). The extracellular volume in each intracellular sample was used to correct the intracellular drug concentration as previously described [87].
The samples were analyzed using an Agilent 1200 HPLC with a diode array absorbance detector and autosampler maintained at 4 °C (Agilent Technologies). The frozen samples were thawed, then centrifuged (11,000g × 5 min), and then extracellular samples were injected directly (typically 20 μL), while for the intracellular samples 30 μL was mixed 1:1 with αMEM and 50 μL was injected. […] All calibration curves were linear (R^2 > 0.999). The column was an Agilent ZORBAX Eclipse (XDB-C18, 5u, 2.1 × 150 mm, Agilent Technologies) with a flow rate of 0.4 mL/min. For SN30000 (2), the mobile phase was a mixture of 80% MeCN/water v/v (A), and a 45 mM formate buffer at a pH 4.5, eluting with a linear gradient of 5–100% A over 18 min. The same method was used for the BTO acids, except for 4a, where the aqueous mobile phase pH was reduced to 3.5.
Values are mean and SEM for 3 replicates. ND: Not detected.

SiHa cells [3] = assay: IC50 assay (inhibition of proliferation, 4 h exposure, SRB); details: SiHa
Protocol: Cells were seeded in 96-well plates (SiHa or FaDu 1500 cells/well, UT-SCC-74B 800 cells/well) in 100 μL. After incubation for 2 h, the drugs were added in 50 μL of the same titrated medium at 3× the final concentration to duplicate the wells. After a further 4 h the plates were checked for drug precipitation using a phase contrast microscope, then drugs were removed by aspirating and washing with the standard (pH 7.4) medium, then aspirating again and adding 150 μL of the medium. Cultures were then grown for 5 days before staining with sulphorhodamine B and measuring absorbance, with the estimation of IC50 values using 4-parameter logistic regression, as previously carried out.
The medium and plasticware was equilibrated in the chamber for 3 days prior to use. In the anoxia experiments, FaDu cells were plated in poly-L-lysine coated plates (Corning Cat # 356461) to improve attachment.
Cells were subsequently grown under standard cell culture conditions (oxia, pHe 7.4) for 5 days before staining with sulforhodamine B (SRB). […] (B) SN30000 (2). (C) BTO acid 4a. Values are means and errors are ranges for duplicate cultures in a single experiment. Fitted curves are 4-parameter logistic regressions. PCR = pH cytotoxicity ratio. ACR = anoxia cytotoxicity ratio. TMR = tumor microenvironment ratio.

[4] = Solubility in AlphaMEM + 5% FBS, pH 7.4; details: culture medium (AlphaMEM + 5% FBS), pH 7.4, plasma or biological fluid
[5] = Homo sapiens, 4 h, pHe 6.5, 4 h, anoxic, read-out: Anoxic IC50
[6] = Homo sapiens, 4 h, pHe 6.5, 4 h, oxic, read-out: Oxic IC50
[7] = Homo sapiens, 4 h, pHe 7.4, 4 h, anoxic, read-out: Anoxic IC50
[8] = Homo sapiens, 4 h, pHe 7.4, 4 h, oxic, read-out: Oxic IC50
[9] = Homo sapiens, 4 h, read-out: Anoxic IC50, SiHa, pHe 6.5, 4 h, anoxic
[10] = Homo sapiens, 4 h, read-out: Anoxic IC50, SiHa, pHe 7.4, 4 h, anoxic
[11] = Homo sapiens, 4 h, read-out: Oxic IC50, SiHa, pHe 6.5, 4 h, oxic
[12] = Homo sapiens, 4 h, read-out: Oxic IC50, SiHa, pHe 7.4, 4 h, oxic

Molecule | TMR (oxic IC50 pHe 7.4/anoxic IC50 pHe 6.5) (FaDu cells) | PCR Anoxic (IC50 at pHe 7.4/IC50 at pHe 6.5) (FaDu cells; anoxic) | ACR (oxic IC50/anoxic IC50) (FaDu cells; pHe 6.5) | TMR (overall TME ratio = oxic IC50 pHe 7.4/anoxic IC50 pHe 6.5) (SiHa cells [3]) | PCR Anoxic (IC50 at pHe 7.4/IC50 at pHe 6.5) (SiHa cells [3]; anoxic) | PCR oxic (IC50 at pHe 7.4/IC50 at pHe 6.5) (SiHa cells [3]; oxic) | melting point | IC50 (FaDu cells; [5]) [µM] | IC50 (FaDu cells; [6]) [µM] | IC50 (FaDu cells; [7]) [µM] | IC50 (FaDu cells; [8]) [µM] | IC50 (SiHa cells [3]; [9]) [µM] | IC50 (SiHa cells [3]; [10]) [µM] | IC50 (SiHa cells [3]; [11]) [µM] | IC50 (SiHa cells [3]; [12]) [µM] | ACR (anoxic cytotoxicity ratio = oxic IC50/anoxic IC50) (SiHa cells [3]; pHe 6.5) | also measured
3-((2-Carboxyethyl)amino)-7,8-dihydro-6H-indeno[5,6-e][1,2,4]triazine 1,4-Dioxide [Compound 11a] | >1 | >1 | > 1 | 15.9 ± 1.6 | 4.94 ± 1.14 | 4.18 ± 0.21 |  |  |  |  |  |  |  |  |  |  | E^0′ one-electron reduction potential [1]: −481 ± 10 [MV^2+] mV; IC50 (FaDu cells; pHe 6.5, 4 h, anoxic, read-out: Anoxic IC50): 3810 ± 390 µM; IC50 (FaDu cells; pHe 6.5, 4 h, oxic, read-out: Oxic IC50): > 4000 µM; IC50 (FaDu cells; pHe 7.4, 4 h, anoxic, read-out: Anoxic IC50): > 4000 µM; IC50 (FaDu cells; pHe 7.4, 4 h, oxic, read-out: Oxic IC50): > 4000 µM; Ci ratio (Ci at pHe 6.5/Ci at pHe 7.4) (SiHa cells [2]): 4.4 ± 1.2 fold; Ci/Ce, pHe 6.5 Obs 5 min (SiHa cells [2]): 0.17 ± 0.02; Ci/Ce, pHe 6.5 Obs 60 min (SiHa cells [2]): 0.29 ± 0.02; Ci/Ce, pHe 7.4 Obs 5 min (SiHa cells [2]): <0.1; Ci/Ce, pHe 7.4 Obs 60 min (SiHa cells [2]): <0.1; IC50 (SiHa cells [3]; read-out: Anoxic IC50, pHe 6.5, 4 h, anoxic): 145 ± 13 µM; IC50 (SiHa cells [3]; read-out: Anoxic IC50, pHe 7.4, 4 h, anoxic): 714 ± 152 µM; IC50 (SiHa cells [3]; read-out: Oxic IC50, pHe 6.5, 4 h, oxic): 551 ± 16 µM; IC50 (SiHa cells [3]; read-out: Oxic IC50, pHe 7.4, 4 h, oxic): 2300 ± 92 µM
Cc1ccc2c(c1)[n+]([O-])c(CCC(=O)O)n[n+]2[O-] [Compound 6a, 3-(2-Carboxyethyl)-6-methylbenzo[e][1,2,4]triazine 1,4-Dioxide] | >5 | >5 | >5 | >2.7 | 3.24 ± 0.67 |  | 173 to 175 °C (dec.) | 205 ± 25 | > 1000 | > 1000 | > 1000 | 364 ± 47 | 1180 ± 190 | > 1000 | > 1000 | >2.7 | solubility ([4]; kinetic from dmso stock): > 960 µM
COC(=O)CCc1n[n+]([O-])c2cc3c(cc2[n+]1[O-])CCC3 [Compound 7b, 3-(3-Methoxy-3-oxopropyl)-7,8-dihydro-6H-indeno[5,6-e][1,2,4]triazine 1,4-Dioxide] | >10 | 0.58 ± 0.19 | 7.84 ± 2.56 | >13 | 0.48 ± 0.15 | >1 | 170 to 171 °C | 20 ± 5.4 | 157 ± 28 | 11.5 ± 2.2 | > 200 | 15.1 ± 3.1 | 7.3 ± 1.6 | 195 ± 22 | > 200 | 13.0 ± 3.0 | PCR oxic (IC50 at pHe 7.4/IC50 at pHe 6.5) (FaDu cells; oxic): >1.2; ACR (oxic IC50/anoxic IC50) (FaDu cells; pHe 7.4): >17; ACR (anoxic cytotoxicity ratio = oxic IC50/anoxic IC50) (SiHa cells [3]; pHe 7.4): >27; solubility ([4]; thermodynamic from solid): 280 µM
